Tests used:
DeaD strain BB579 = assay: yeast Death of Daughters (DeaD) lifespan assay, reversal of nicotinamide (NAM) lifespan shortening; type: cell-based, S. cerevisiae (yeast); conditions: for average improvement, 250 nM to 1μM: fold improvement in DeaD lifespan (OD600 at 60 h normalized to no drug control), compound 250 nM to 1μM; for average improvement, 250 nM to 1μM / fold induction at 0.125 µM / average improvement, 0.5 to 100 nM: 0.75 mM NAM; for EC50 / fold induction at 0.125 µM: Saccharomyces cerevisiae; for EC50: BB579, read-out: C50 (concentration that yields half the maximal activity) by DeaD assay; for fold induction at 0.125 µM: BB579, compound 125 nM; for fold induction at 0.125 µM / average improvement, 0.5 to 100 nM: fold improvement in DeaD lifespan; for average improvement, 0.5 to 100 nM: compound 0.5 to 100 nM
Procedure: The C50 (50% maximal activity) is a measure of the efficacy of a compound as a LAC and is determined by quantifying the dose-response curve for each LAC by DeaD assay in the presence and absence of nicotinamide. The C50 is the concentration of LAC that yields half the maximal activity. Dose response curves will generally peak and then decline. The decline is most likely due to toxicity at higher LAC concentrations. The C50 is determined relative to the maximal lifespan extension (the peak value). C50 values are provided for C1-5.
The compounds listed in Table 1 of Example 3 were assessed for their anti-aging activities using the yeast Death of Daughters (DeaD) explicative lifespan assay. Specifically, the compounds were assessed for their capacity to reverse the lifespan shortening effect of exogenous nicotinamide (NAM), which is a known inhibitor of the anti-aging protein Sir2p (Anderson et al., 2003; Bitterman et al., 2002). These compounds were compared to the activities of known cluster 1 compounds, S3-5, and #3-11.
“Activity” here is defined herein as the fold improvement in DeaD lifespan in the presence of 0.75 mM NAM relative to lifespan in the absence of cluster 1 compounds, over a range of compound concentrations between 0.5 nm-1 μm. This “activity” value is a means of assessing the usefulness of a compound as a LAC. The assays were performed as follows. DeaD strain BB579 was grown overnight in a permissive (galactose-containing) medium to mid-log phase, and then diluted to an OD600 of 0.0001 in restrictive (glucose-containing) medium with 0.75 mM NAM and the compound to be tested. Cells were then incubated at 30° C. for 3 days, with shaking and OD600 measurement every 20 minutes. The OD600 reading after 60 hours in restrictive medium, normalized to the same measurement for the “no drug” control, was used as the number for comparison.
Five of the compounds with higher activity than S3-5 were selected for further study and were designated C1-1, C1-2, C1-3, C1-4, and C1-5 (see Table 2, Example 4). All data in FIGS. 1A(1)-(6) are from media containing 0.75 mM NAM. Note the different ranges of the X axes in FIGS. 1A(1)-(6)—very different C50 values for the compounds of the present invention compared the known C1 cluster compounds. […] All five had C50 values below 50 nM, while the C50 value for S3-5 was about 650 nM, and the C50 for S1-9 was about 350 nM.

[1] = system: strain FY839 (healthy wild-type); assay: Toxicity of compounds by yeast growth assay; type: cell-based; conditions: FY839, inset in FIG. 2
Procedure: The toxicity of compounds C1-1, C1-2, C1-3, C1-4, and C1-5 in yeast was assessed by determining their effects on growth of a wild-type yeast strain. FIG. 2 is a graphical representation of the toxicity data. The yeast used was strain FY839 (healthy wild-type) growing in SCD. At 12 hours all were in log phase. […] This concentration is many-fold higher than the effective concentrations of these compounds as assessed by DeaD lifespan assays.

RAW 264.7 cells = assay: LPS-induced TNF-α secretion from RAW 264.7 cells (ELISA); type: cell-based, murine; conditions: compound 1 micromolar, LPS 10 ng/ml for 6 hrs; FIG. 3
Procedure: FIG. 3. […] To obtain the data summarized in FIG. 3, RAW […] cells were incubated with Scrims (compounds of present invention) (1 uM), PI3K inhibitor positive control (LY-294002; 25 uM) or vehicle (DMSO) for 1 hr. LPS (10 ng/ml) was added to the medium. 6 hrs post LPS administration medium was collected and analyzed for TNFa levels using ELISA.
In vitro anti-inflammatory activity in RAW 264.7 cells (murine leukaemic monocyte macrophage cell line): Lipopolysaccharide (LPS)-induced secretion of cytokines from RAW cells is a recognized in vitro assay for anti-inflammatory drugs. The anti-inflammatory activities of C1-1, C1-2, C1-3, C1-4, and C1-5 in the RAW cell model. RAW cells exposed to LPS were incubated with each of the five molecules at 1 micromolar concentration. The PIK3 inhibitor LY-294002 was used at 25 micromolar as a positive control. […] LPS was administered at 10 ng/ml for 6-hrs. TNF-α levels were quantified by ELISA assay. Results are presented as % of control with standard deviations of three replicates.

Row | Structure (SMILES) | average improvement, 250 nM to 1μM (DeaD strain BB579) | fold induction at 0.125 µM (DeaD strain BB579) | other results
1 | CCCC(=O)C1C(=O)C(C(C)=O)C(=O)CC1CC(C)CCC (stereo not shown) [#3-11, reference compound] | 1.30 |  | 
2 | CCC(=O)C1C(=O)CC(C2CCCCC2)CC1=O (stereo not shown) [SRI# 22788, 1,3-cyclohexanedione, 2-propanoyl-5-cyclohexyl-] |  |  | EC50 (DeaD strain BB579): < 50 nM; toxic effects on growth at concentrations below 1 μM [1]: little or no toxic effects on growth; reduction of secreted TNF-α relative to vehicle treated cells (RAW 264.7 cells): exhibited anti-inflammatory activity
3 | CCC(=O)C1C(=O)CC(C2CC3C=CC2C3)CC1=O (stereo not shown) [SRI# 22965, 1,3-cyclohexanedione, 2-propanoyl-5-[bicyclo[2.2.1]hept-2-en-5-yl]-] |  |  | EC50 (DeaD strain BB579): < 50 nM; reduction of secreted TNF-α relative to vehicle treated cells (RAW 264.7 cells): exhibited anti-inflammatory activity
4 | CCC(=O)C1C(=O)CC(C2CCCCC2)CC1=O (stereo not shown) [compound 22788] | 2.74 | 3.4 | average improvement, 0.5 to 100 nM (DeaD strain BB579): 1.75
5 | CCC(=O)C1C(=O)CC(c2c(F)cccc2Cl)CC1=O (stereo not shown) [compound 22789] | 2.62 | 2.61 | average improvement, 0.5 to 100 nM (DeaD strain BB579): 1.30
6 | CCC(=O)C1C(=O)CC(c2ccc(F)cc2)CC1=O (stereo not shown) [compound 22790] | 2.64 | 2.85 | average improvement, 0.5 to 100 nM (DeaD strain BB579): 1.37
7 | CCC(=O)C1C(=O)CC(c2ccco2)CC1=O (stereo not shown) [compound 22791] | 2.15 | 1.77 | 
8 | COc1cc(OC)c(C2CC(=O)C(C(=O)C3CC3)C(=O)C2)c(OC)c1 (stereo not shown) [compound 22821] | 1.62 | 1.27 | 
9 | Cc1ccc(C2CC(=O)C(C(=O)C3CC3)C(=O)C2)cc1 (stereo not shown) [compound 22824] | 1.42 | 1.32 | 
10 | O=C1CC(c2ccc(F)cc2)CC(=O)C1C(=O)C1CC1 (stereo not shown) [compound 22835] | 2.21 | 2.48 | 
11 | CC(C)C(=O)C1C(=O)CC(c2ccc(F)cc2)CC1=O (stereo not shown) [compound 22837] | 1.72 |  | 
12 | CC(=O)C1C(=O)CC(c2ccc(Cl)cc2Cl)CC1=O (stereo not shown) [compound 22840] | 1.87 | 2.24 | 
13 | O=C1CC(C2CCCCC2)CC(=O)C1C(=O)c1ccccc1 (stereo not shown) [compound 22845] | 2.11 | 1.99 | 
14 | CC(=O)C1C(=O)CC(c2c(F)cccc2Cl)CC1=O (stereo not shown) [compound 22847] | 2.17 | 3.25 | 
15 | CC(=O)C1C(=O)CC(c2ccco2)CC1=O (stereo not shown) [compound 22848] | 1.58 |  | 
16 | CC(=O)C1C(=O)CC(c2ccc(F)cc2)CC1=O (stereo not shown) [compound 22850] | 1.59 |  | 
17 | CC(=O)C1C(=O)CC(C2CC3C=CC2C3)CC1=O (stereo not shown) [compound 22856] | 2.18 | 3.18 | 
18 | O=C1CC(c2ccccc2)CC(=O)C1C(=O)C1CC1 (stereo not shown) [compound 22878] | 2.11 | 2.62 | 
19 | CC(C)C(=O)C1C(=O)CC(c2ccccc2)CC1=O (stereo not shown) [compound 22880] | 1.59 | 1.49 | 
20 | O=C1CC(c2ccc(Cl)cc2Cl)CC(=O)C1C(=O)C1CC1 (stereo not shown) [compound 22889] | 1.64 |  | 

Row | Structure (SMILES) | average improvement, 250 nM to 1μM (DeaD strain BB579) | fold induction at 0.125 µM (DeaD strain BB579) | other results
21 | CC(C)C(=O)C1C(=O)CC(c2ccc(Cl)cc2Cl)CC1=O (stereo not shown) [compound 22890] | 1.46 |  | 
22 | O=C1CC(c2cccs2)CC(=O)C1C(=O)C1CC1 (stereo not shown) [compound 22897] | 1.85 | 1.25 | 
23 | CC(C)C(=O)C1C(=O)CC(c2cccs2)CC1=O (stereo not shown) [compound 22898] | 1.37 |  | 
24 | CCCCCCC1CC(=O)C(C(C)=O)C(=O)C1 (stereo not shown) [compound 22926] | 1.87 | 0.99 | 
25 | CCCCCCC1CC(=O)C(C(=O)CC)C(=O)C1 (stereo not shown) [compound 22927] | 1.43 |  | 
26 | CCC(=O)C1C(=O)CC(c2cccs2)CC1=O (stereo not shown) [compound 22930] | 2.33 | 2.21 | 
27 | CC(=O)C1C(=O)CC(C(C)C)CC1=O (stereo not shown) [compound 22931] | 2.09 | 1.86 | 
28 | CCC(=O)C1C(=O)CC(C(C)C)CC1=O (stereo not shown) [compound 22932] | 1.80 | 1.76 | 
29 | CC(=O)C1C(=O)CC(c2cccs2)CC1=O (stereo not shown) [compound 22933] | 2.55 | 2.71 | average improvement, 0.5 to 100 nM (DeaD strain BB579): 1.70
30 | CC(=O)C1C(=O)CC(c2ccc3c(c2)OCO3)CC1=O (stereo not shown) [compound 22935] | 1.51 |  | 
31 | CCC(=O)C1C(=O)CC(c2ccc3c(c2)OCO3)CC1=O (stereo not shown) [compound 22936] | 1.46 |  | 
32 | CC(=O)C1C(=O)CC(c2cn(C)c3ccccc23)CC1=O (stereo not shown) [compound 22939] | 1.60 |  | 
33 | CCC1CC(=O)C(C(C)=O)C(=O)C1 (stereo not shown) [compound 22941] | 1.62 |  | 
34 | CCCCC1CC(=O)C(C(C)=O)C(=O)C1 (stereo not shown) [compound 22942] | 2.49 | 2.87 | average improvement, 0.5 to 100 nM (DeaD strain BB579): 1.71
35 | CCCCC1CC(=O)C(C(=O)CC)C(=O)C1 (stereo not shown) [compound 22943] | 2.33 | 2.79 | 
36 | CCCCCC1CC(=O)C(C(C)=O)C(=O)C1 (stereo not shown) [compound 22944] | 2.28 | 2.72 | average improvement, 0.5 to 100 nM (DeaD strain BB579): 1.21
37 | CCCCCC1CC(=O)C(C(=O)CC)C(=O)C1 (stereo not shown) [compound 22945] | 2.54 | 1.96 | 
38 | CCCC(=O)C1C(=O)CC(c2cn(C)c3ccccc23)CC1=O (stereo not shown) [compound 22947] | 1.64 |  | 
39 | CCC(=O)C1C(=O)CC(C2CC3C=CC2C3)CC1=O (stereo not shown) [compound 22965] | 2.57 | 3.65 | average improvement, 0.5 to 100 nM (DeaD strain BB579): 1.72
